Laboratory results as given in patent publication US9018214B2, “Bicyclic heterocycle compounds and their uses in therapy” (Astex Therapeutics Limited, priority 2011, dated 2015).
Where a name gives a salt, the structure may show the parent alone. Read-outs that look alike come from different tables or passages of the source.

Legend:
[1] = biological target: BIR3 domain of human XIAP (residues 252-350) (Homo sapiens (Human), UniProt P98170); test: XIAP in vitro competitive displacement binding assay (fluorescence polarization); conditions: for IC50: read-out: IC50 or PI Xiap: IC50
[2] = biological target: BIR3 domain of human cIAP-1 (residues 267-363) (Homo sapiens (Human), UniProt Q13490); test: cIAP-1 in vitro competitive displacement binding assay (fluorescence polarization; Probe A AVPIK(5&6FAM)-amide or Probe B AbuRPFK(5&6FAM)-amide)
[3] = Probe B AbuRPFK(5&6FAM)-amide, read-out: IC50 or PI cIAP1: IC50
[4] = read-out: IC50 or PI cIAP1: IC50
[5] = Probe A AVPIK(5&6FAM)-amide, read-out: IC50 or PI cIAP1: IC50
[6] = 1 h, read-out: IC50 or PI Xiap: PI
[7] = 3 h, Probe A, read-out: IC50 or PI cIAP1: PI

For `COC[C@H]1CN[C@H](C)CN1CC(=O)N1CC(C)(c2ccccn2)c2ccc(C#N)cc21` (mixture of isomers) [Example 156, 1-{2-[(2R,5R)-2-(Methoxymethyl)-5-methylpiperazin-1-yl]acetyl}-3-methyl-3-(pyridin-2-yl)-2,3-dihydro-1H-indole-6-carbonitrile hydrochloride [mixture of diastereoisomers]], the IC50 [1] was 1.5 µM and the IC50 [2, 3] was 1.3 µM.
`C[C@@H]1CN(CC(=O)N2CCc3ccc(N(C)c4ccccc4)cc32)CCN1` [Example 2, 1-[6-(Methyl-phenyl-amino)-2,3-dihydro-indol-1-yl]-2-((R)-3-methyl-piperazin-1-yl)-ethanone Trifluoroacetate salt] gave an IC50 [1] of 41 µM and an IC50 [2, 4] of 79 µM.
`C[C@@H]1CN(CC(=O)N2CCc3ccc(Nc4ccccc4)cc32)CCN1` [Example 3, 2-((R)-3-Methyl-piperazin-1-yl)-1-(6-phenylamino-2,3-dihydro-indol-1-yl)-ethanone Trifluoroacetate salt] gave an inhibition at 99 µM ([2]; 3 h, read-out: IC50 or PI cIAP1: PI) of 48%.
`C[C@@H]1CN(CC(=O)N2CCc3ccc(Cl)cc32)CCN1` [Example 4, 1-(6-Chloro-2,3-dihydro-indol-1-yl)-2-((R)-3-methyl-piperazin-1-yl)-ethanone] was tested, and the IC50 [2, 5] was 29 µM.
With `COc1ccc2c(c1)N(C(=O)CN1CCN[C@H](C)C1)CC2` [Example 5, 1-(6-Methoxy-2,3-dihydro-indol-1-yl)-2-((R)-3-methyl-piperazin-1-yl)-ethanone] the inhibition at 160 µM [1, 6] was 49% and the IC50 [2, 5] was 78 µM.
`Cc1ccc2c(c1)N(C(=O)CN1CCN[C@H](C)C1)CC2` [Example 6, 1-(6-Methyl-2,3-dihydro-indol-1-yl)-2-((R)-3-methyl-piperazin-1-yl)-ethanone] showed an IC50 [2, 5] of 95 µM.
`C[C@@H]1CN(CC(=O)N2CCc3ccc(N)cc32)CCN1` [Example 7, 1-(6-Amino-2,3-dihydro-indol-1-yl)-2-((R)-3-methyl-piperazin-1-yl)-ethanone] gave an inhibition at 1600 µM ([1]; 1 h, @ 1600 μM, read-out: IC50 or PI Xiap: PI) of 43% and an inhibition at 5000 µM ([2]; 3 h, Probe A, @ 5000 μM, read-out: IC50 or PI cIAP1: PI) of -30%.
For `C[C@@H]1CN(CC(=O)N2CCc3ccc(NS(C)(=O)=O)cc32)CCN1` [Example 8, N-{1-[2-((R)-3-Methyl-piperazin-1-yl)-acetyl]-2,3-dihydro-1H-indol-6-yl}-methane-sulfonamide], the inhibition at 160 µM [1, 6] was 59% and the inhibition at 160 µM [2, 7] was 46%.
Work on `C[C@@H]1CN(CC(=O)N2CCc3cc(F)ccc32)CCN1` [Example 9, 1-(5-Fluoro-2,3-dihydro-indol-1-yl)-2-((R)-3-methyl-piperazin-1-yl)-ethanone] yielded an IC50 [1] of 130 µM and an IC50 [2, 5] of 170 µM.
`C[C@@H]1CN(CC(=O)N2CCc3ccc(F)cc32)CCN1` [Example 10, 1-(6-Fluoro-2,3-dihydro-indol-1-yl)-2-((R)-3-methyl-piperazin-1-yl)-ethanone] was tested, and the inhibition at 160 µM [2, 7] was 51%.
With `C[C@@H]1CN(CC(=O)N2CCc3cc(Br)ccc32)CCN1` [Example 11, 1-(5-Bromo-2,3-dihydro-indol-1-yl)-2-((R)-3-methyl-piperazin-1-yl)-ethanone] the inhibition at 100 µM ([1]; 1 h, @ 100 μM, read-out: IC50 or PI Xiap: PI) was 59% and the inhibition at 100 µM [2, 7] was 46%.
Work on `CC(C)[C@H]1CN[C@H](C)CN1CC(=O)N1CCc2ccc(Br)cc21` [Example 12, 1-(6-Bromo-2,3-dihydro-indol-1-yl)-2-((2S,5R)-2-isopropyl-5-methyl-piperazin-1-yl)-ethanone] yielded an IC50 [2] of less than 10 µM.
With `CC(C)c1ccc2c(c1)N(C(=O)CN1CCN[C@H](C)C1)CC2` [Example 13, 1-(6-Isopropyl-2,3-dihydro-indol-1-yl)-2-((R)-3-methyl-piperazin-1-yl)-ethanone] the IC50 [2, 5] was 63 µM.
For `C[C@@H]1CN(CC(=O)N2CCc3cnccc32)CCN1` [Example 14, 1-(2,3-Dihydro-pyrrolo[3,2-c]pyridin-1-yl)-2-((R)-3-methyl-piperazin-1-yl)-ethanone], the inhibition at 99 µM ([1]; 1 h, @ 99 μM, read-out: IC50 or PI Xiap: PI) was 53% and the inhibition at 160 µM [2, 7] was 46%.
For `COC(=O)c1ccc2c(c1)N(C(=O)CN1CCN[C@H](C)C1)CC2` [Example 15, 1-[2-((R)-3-Methyl-piperazin-1-yl)-acetyl]-2,3-dihydro-1H-indole-6-carboxylic acid methyl ester], the IC50 [1] was 19 µM, the IC50 [2] was less than 10 µM and the IC50 [2, 4] was 6.8 µM.
In the case of `CNC(=O)c1ccc2c(c1)N(C(=O)CN1CCN[C@H](C)C1)CC2` [Example 16, 1-[2-((R)-3-Methyl-piperazin-1-yl)-acetyl]-2,3-dihydro-1H-indole-6-carboxylic acid methylamide], the inhibition at 77 µM ([1]; 1 h, @ 77 μM, read-out: IC50 or PI Xiap: PI) is reported as 42% and the inhibition at 250 µM ([2]; 3 h, Probe A, @ 250 μM, read-out: IC50 or PI cIAP1: PI) is reported as 56%.
`C[C@@H]1CN(CC(=O)N2CCc3ccc(C(=O)N(C)C)cc32)CCN1` [Example 17, 1-[2-((R)-3-Methyl-piperazin-1-yl)-acetyl]-2,3-dihydro-1H-indole-6-carboxylic acid dimethylamide] gave an IC50 [1] of 110 µM and an inhibition at 160 µM [2, 7] of 44%.
`C[C@@H]1CN(CC(=O)N2CCc3ccc(C(=O)N4CCCC4)cc32)CCN1` [Example 18, 2-((R)-3-Methyl-piperazin-1-yl)-1-[6-(pyrrolidine-1-carbonyl)-2,3-dihydro-indol-1-yl]-ethanone] showed an inhibition at 49 µM ([1]; 1 h, @ 49 μM, read-out: IC50 or PI Xiap: PI) of 47% and an inhibition at 49 µM ([2]; 3 h, Probe A, @ 49 μM, read-out: IC50 or PI cIAP1: PI) of 43%.
Molecule `C[C@@H]1CN(CC(=O)N2CC(C)(C)c3c(Cl)cccc32)CCN1` [Example 19, 1-(4-Chloro-3,3-dimethyl-2,3-dihydro-indol-1-yl)-2-((R)-3-methyl-piperazin-1-yl)-ethanone] has an IC50 [1] of 150 µM and an IC50 [2, 5] of 17 µM.
`C[C@@H]1CN(CC(=O)N2CCc3ccc(C(F)(F)F)cc32)CCN1` [Example 22, 2-((R)-3-Methyl-piperazin-1-yl)-1-(6-trifluoromethyl-2,3-dihydro-indol-1-yl)-ethanone] showed an IC50 [2, 5] of 36 µM.
`C[C@@H]1CN(CC(=O)N2CCc3ccc(S(C)(=O)=O)cc32)CCN1` [Example 30, 1-(6-Methane-sulfonyl-2,3-dihydro-indol-1-yl)-2-((R)-3-methyl-piperazin-1-yl)-ethanone hydrochloride salt] gave an inhibition at 99 µM ([2]; 3 h, Probe A, @ 99 μM, read-out: IC50 or PI cIAP1: PI) of 60%.
Work on `COC[C@H]1CN[C@H](C)CN1CC(=O)N1CC(C)(C)c2cnc(CC(C)C)cc21` [Example 72, 1-(6-Isobutyl-3,3-dimethyl-2,3-dihydro-pyrrolo[3,2-c]pyridin-1-yl)-2-((2R,5R)-2-methoxymethyl-5-methyl-piperazin-1-yl)-ethanone] yielded an IC50 [2, 3] of 0.31 µM.
`COC[C@H]1CN[C@H](C)CN1CC(=O)N1CC(C)(C)c2cnc(Cc3ccc(OC)cc3)cc21` [Example 98, 2-[(2R,5R)-2-(Methoxymethyl)-5-methylpiperazin-1-yl]-1-{6-[(4-methoxyphenyl)methyl]-3,3-dimethyl-1H,2H,3H-pyrrolo[3,2-c]pyridin-1-yl}ethan-1-one, hydrochloride salt] gave an IC50 [2, 3] of 0.023 µM.
With `COC[C@H]1CN[C@H](C)CN1CC(=O)N1CC(C)(Cc2ccccc2)c2ccc(Cl)cc21` (stereo partly drawn) [Example 107, 1-(3-Benzyl-6-chloro-3-methyl-2,3-dihydro-1H-indol-1-yl)-2-[(2R,5R)-2-(methoxymethyl)-5-methylpiperazin-1-yl]ethan-1-one, hydrochloride salt] the IC50 [2, 3] was 0.55 µM.
In the case of `CC1(C)CN(C(=O)CN2CCNC(C(F)(F)F)C2)c2cc(Cc3ccccc3)ncc21` (stereo not shown) [Example 113, 1-{6-Benzyl-3,3-dimethyl-1H,2H,3H-pyrrolo[3,2-c]pyridin-1-yl}-2-[3-(trifluoromethyl)piperazin-1-yl]ethan-1-one], the inhibition at 100 µM ([2]; 3 h, Probe B, read-out: IC50 or PI cIAP1: PI) is reported as 6%.
Work on `CC1(C)CN(C(=O)CN2CCNC(CF)C2)c2cc(Cc3ccccc3)ncc21` (stereo not shown) [Example 114, 1-{6-Benzyl-3,3-dimethyl-1H,2H,3H-pyrrolo[3,2-c]pyridin-1-yl}-2-[3-(fluoromethyl)piperazin-1-yl]ethan-1-one] yielded an IC50 [2, 3] of 1.5 µM.
In the case of `CC1(C)CN(C(=O)CN2CCN[C@H](CF)C2)c2cc(Cc3ccccc3)ncc21` [Example 115, 1-{6-Benzyl-3,3-dimethyl-1H,2H,3H-pyrrolo[3,2-c]pyridin-1-yl}-2-[(3S)-3-(fluoromethyl)piperazin-1-yl]ethan-1-one], the IC50 [2, 3] is reported as 0.67 µM.
`CC1(C)CN(C(=O)CN2CCN[C@@H](CF)C2)c2cc(Cc3ccccc3)ncc21` [Example 116, 1-{6-Benzyl-3,3-dimethyl-1H,2H,3H-pyrrolo[3,2-c]pyridin-1-yl}-2-[(3R)-3-(fluoromethyl)piperazin-1-yl]ethan-1-one] showed an IC50 [2, 3] of 1.9 µM.
With `COC[C@H]1CN[C@H](C)CN1CC(=O)N1C[C@@](C)(c2ccccc2)c2ccc(C#N)cc21` [Example 139, (3S)-1-{2-[(2R,5R)-2-(Methoxymethyl)-5-methylpiperazin-1-yl]acetyl}-3-methyl-3-phenyl-2,3-dihydro-1H-indole-6-carbonitrile] the IC50 [1] was 0.23 µM.
Work on `C[C@@H]1CN(CC(=O)N2CC(C)(C)c3ncc(C(C)(F)F)cc32)[C@@H](CN2CCCC2=O)CN1` [Example 188, 1-{[(2R,5R)-1-{2-[6-(1,1-Difluoroethyl)-3,3-dimethyl-1H,2H,3H-pyrrolo[3,2-b]pyridin-1-yl]-2-oxoethyl}-5-methylpiperazin-2-yl]methyl}pyrrolidin-2-one dihydrochloride] yielded an IC50 [2, 4] of 0.04 µM.
`C[C@@H]1CN(CC(=O)N2CC(C)(C)c3ncc(Cc4ccc(F)cc4)cc32)CCN1` [Example 265, 1-[6-(4-Fluoro-benzyl)-3,3-dimethyl-2,3-dihydro-pyrrolo[3,2-b]pyridin-1-yl]-2-((R)-3-methyl-piperazin-1-yl)-ethanone] was tested, and the IC50 [2] was less than 10 µM and the IC50 [2, 4] was 0.041 µM.
